Data: publication PMC3730168, “Thiol Redox Sensitivity of Two Key Enzymes of Heme Biosynthesis and Pentose Phosphate Pathways: Uroporphyrinogen Decarboxylase and Transketolase” (Oxidative Medicine and Cellular Longevity, 2013)

Tests used:
Tkl1p = target: T1, Tkl1p (Saccharomyces cerevisiae, UniProt P23254); assay: fluorescent labelling with eosin-GSH, eosin absorbance at […] nm; type: binding; details: covalent; labelled compound; excess DiEGSSG
T1 construct: gene TKL1; recombinant, codon-optimised synthetic DNA, C-terminal poly-His tag, E. coli, Ni-Sepharose (Abyntek Biopharma); homodimer
T1 sequence (P23254 1-680): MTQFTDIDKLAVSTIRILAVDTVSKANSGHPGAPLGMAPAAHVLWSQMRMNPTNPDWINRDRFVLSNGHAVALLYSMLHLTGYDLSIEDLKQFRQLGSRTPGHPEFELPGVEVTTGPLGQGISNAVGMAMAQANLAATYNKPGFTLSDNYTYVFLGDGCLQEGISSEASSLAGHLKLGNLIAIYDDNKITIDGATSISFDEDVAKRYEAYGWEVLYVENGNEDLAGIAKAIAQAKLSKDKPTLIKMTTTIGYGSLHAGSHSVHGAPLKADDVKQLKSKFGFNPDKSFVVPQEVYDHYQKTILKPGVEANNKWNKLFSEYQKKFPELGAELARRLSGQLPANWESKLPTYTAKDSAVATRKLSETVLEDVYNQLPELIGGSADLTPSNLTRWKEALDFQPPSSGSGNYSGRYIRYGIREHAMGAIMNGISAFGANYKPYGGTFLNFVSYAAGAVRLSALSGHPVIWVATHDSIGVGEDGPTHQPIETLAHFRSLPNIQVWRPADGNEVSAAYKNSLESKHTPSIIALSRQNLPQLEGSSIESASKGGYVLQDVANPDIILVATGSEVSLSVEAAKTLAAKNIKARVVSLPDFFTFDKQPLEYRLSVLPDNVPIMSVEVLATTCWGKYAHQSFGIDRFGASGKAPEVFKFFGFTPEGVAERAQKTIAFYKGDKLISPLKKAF

Hem12p = target: T2, Hem12p (Saccharomyces cerevisiae, UniProt P32347); assay: as above; type: binding; details: covalent; labelled compound; excess DiEGSSG
T2 construct: gene HEM12; recombinant, codon-optimised synthetic DNA, C-terminal poly-His tag, E. coli, Ni-Sepharose (Abyntek Biopharma)
T2 sequence (P32347 1-362): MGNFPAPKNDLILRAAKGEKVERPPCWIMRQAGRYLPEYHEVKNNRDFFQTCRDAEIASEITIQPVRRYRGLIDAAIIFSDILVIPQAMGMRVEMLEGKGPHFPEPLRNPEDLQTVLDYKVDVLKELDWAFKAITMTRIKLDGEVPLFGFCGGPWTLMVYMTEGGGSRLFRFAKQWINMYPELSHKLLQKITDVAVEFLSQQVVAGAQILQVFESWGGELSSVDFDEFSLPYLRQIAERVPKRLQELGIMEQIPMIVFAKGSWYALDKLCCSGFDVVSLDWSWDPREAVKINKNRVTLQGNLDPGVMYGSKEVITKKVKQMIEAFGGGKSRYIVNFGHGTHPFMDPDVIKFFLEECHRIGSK

moles of fluorescent moiety per mole protein (Tkl1p): ~ 0.35 mol/mol
moles of fluorescent glutathione per mole protein (Hem12p): ~ 1.5 mol/mol
Structure (SMILES): O=C(O)CNC(=O)[C@H](CSSC[C@H](NC(=O)CC[C@H](NC(=S)Nc1ccc(-c2c3cc(Br)c(=O)c(Br)c-3oc3c(Br)c(O)c(Br)cc23)c(C(=O)O)c1)C(=O)O)C(=O)NCC(=O)O)NC(=O)CC[C@H](NC(=S)Nc1ccc(-c2c3cc(Br)c(=O)c(Br)c-3oc3c(Br)c(O)c(Br)cc23)c(C(=O)O)c1)C(=O)O [DiEGSSG, dieosinediglutathione]
